Assay results as given in patent US20050281814A1, “Combination radiation therapy and chemotherapy in conjunction with administration of growth factor receptor antibody” (priority 2000, published 2005).

What was measured:
SW948 cells = test: SW948 colon tumor xenograft study with IMC-C225, CPT-11 and RT; format: in vivo, athymic nude mice; conditions: s.c. SW948 tumors, n=7/group, RT 3 Gy q6d
BxPC-3 cells = test: In vitro cell proliferation, BxPC-3; format: cell-based, human
[1] = test system: Mia-PaCa-2 human pancreatic cancer cells; test: MiaPaCa-2 xenograft tumor therapy study with IMC-C225, gemcitabine and radiation; format: in vivo, athymic nude mice; conditions: s.c. Mia-PaCa-2 tumors, n=8/group, RT 3 Gy q6d
Protocol: Athymic nude mice were implanted subcutaneously with 2×10^7 Mia-PaCa-2 cells mixed with Matrigel.
MiaPaCa-2 cells were mixed with Matrigel (1:1) and 2×10^7 cells injected s.c. into athymic nude mice on day 0. […] Four groups of mice received gemcitabine (120 mg/kg) i.v. on days 23, 29, 35, 41, 47, and 54. In four groups of mice, tumors were exposed to six fractions of 3 Gy ^60Co radiation on days 24, 30, 36, 42, 48, and 55. The results are presented as the change in tumor size relative to baseline size on day 22. The MiaPaCa-2 experiment was terminated after 333 days.
In the animal model tumor therapy studies, multiple endpoints were examined and appropriate statistical tests were conducted to address differences between treatment groups with respect to each endpoint. The endpoints included, the size of the tumor, which was computed for each tumor at each time period, percent of original tumor size, computed for each tumor at each time point after baseline, regression, time to regression, and time that the tumor size reached twice the original tumor size (time to double). Inferences are made on the true median rather than the mean response, i.e. median tumor size or median time to double in size.

MiaPaCa-2 cells [2] = test: Apoptotic cell death in vitro (annexin V-FITC), MiaPaCa-2; format: cell-based, human; conditions: MiaPaCa-2, p-value<0.05; not enhanced by any other treatment
From the text: Early stages of apoptosis were identified using an annexin V-FITC apoptosis detection kit (BioVision Research Products, Palo Alto, Calif.). In studies of radiation cell survival assays, survival data was fitted to the linear quadratic (LQ) and single hit multi-target (SHMT) radiobiological models using Fit v. 2.4 software kindly provided by Dr. N. Albright, University of California at San Francisco.
(§1) Various combinations of treatment modality were studied in vitro.

MiaPaCa-2 cells [3] = test: In vitro cell proliferation, MiaPaCa-2; format: cell-based, human
From the text: as §1

SMILES | mean tumor size doubling time (SW948 cells; IMC-C225 1 mg q3d×12, CPT-11 33 mg/kg q4d) | complete tumor regressions (SW948 cells; IMC-C225 1 mg q3d×12 i.p., CPT-11 33 mg/kg i.v. q4d, regressions/animals) | cell proliferation, combination of radiation (3 Gy) and gemcitabine (BxPC-3 cells; BxPC-3) | inhibition of cell growth (BxPC-3 cells; BxPC-3, 24 h exposure to the IC50 dose of gemcitabine) | mean tumor size doubling time ([1]; IMC-C225 1 mg q3d×12, GEM 120 mg/kg q6d) | complete tumor regressions ([1]; IMC-C225 1 mg q3d×12 i.p., GEM 120 mg/kg q6d, regressions/animals) | apoptotic cell death (MiaPaCa-2 cells [2]) | cell proliferation, combination of radiation (3 Gy) and gemcitabine (MiaPaCa-2 cells [3]; MiaPaCa-2) | inhibition of cell growth (MiaPaCa-2 cells [3]; MiaPaCa-2, 24 h exposure to the IC50 dose of gemcitabine)
CCc1c2c(nc3ccc(OC(=O)N4CCC(N5CCCCC5)CC4)cc13)-c1cc3c(c(=O)n1C2)COC(=O)[C@]3(O)CC [CPT-11, irinotecan] | 57 days | 0/7 | – | – | – | – | – | – | –
Nc1ccn([C@@H]2O[C@H](CO)[C@@H](O)C2(F)F)c(=O)n1 [gemcitabine] | – | – | decrease in cell proliferation | approximately 55% | 22 days | 0/8 | small but significant increase | decrease in cell proliferation | approximately 45%
